Where a SMILES comes first, the peptide text is derived from it. Bridges are numbered along the chain shown (N, C = ends). [ ]: non-standard residue; d: D form. The star is where a group is joined. Val(Nα-amidino) = CC(C)[C@H](NC(=N)N)C(=O)*; Hyp = O=C(O)[C@@H]1C[C@@H](O)CN1; Cha = N[C@@H](CC1CCCCC1)C(=O)O; Pen = CC(C)(S)[C@H](N)C(=O)O; ΔPro = O=C(O)[C@@H]1C=CCN1; dDab = NCC[C@@H](N)C(=O)O; hSer = N[C@@H](CCO)C(=O)O; Dab = NCC[C@H](N)C(=O)O

What all share (type): cell-based
Data set [1] concerns Escherichia coli MCR-1 Af 45. The note with it: MCR-1 Af 45. Here is the method:
(§1) Lyophilized peptides were weighed on a Microbalance (Mettler MT5) and dissolved in sterile water to a final concentration of 1 mg/mL. Stock solutions were kept at +4° C., light protected.
(§2) The selective antimicrobial activities of the peptides were determined in 96-well plates (Greiner, polystyrene) by the standard CLSI broth microdilution method (Clinical and Laboratory Standards Institute. Methods for Dilution Antimicrobial Susceptibility Tests for Bacteria That Grow Aerobically; Approved Standard-Ninth Edition. CLSI document M07-A9 (ISBN 1-56238-783-9 [Print]; ISBN 1-56238-784-7 [Electronic]). Clinical and Laboratory Standards Institute, 950 West Valley Road, Suite 2500, Wayne, Pennsylvania 19087, USA, 2012) with slight modifications.
(§3) Colonies of the microorganisms were diluted in saline (0.85%, NaCl) and adjusted using a McFarland reader (bioMérieux SA, Marcy-l'Etoile, France) to 0.5 McFarland standard. Subsequently, the bacterial suspension was diluted in Mueller-Hinton II (MHII, cation adjusted) broth to give approximately 5×10^5 colony forming units (CFU/mL).
(§4) Inocula of the microorganisms were diluted into Mueller-Hinton II (MH, cation adjusted) broth and compared with a 0.5 McFarland standard to give appr. 10^6 colony forming units (CFU)/mL. Aliquots (90 μl) of inoculate were added to 10 μl of water+P-80 (Polysorbate 80, 0.002% final concentration) containing the peptide in serial two-fold dilutions at 10 fold final concentration. The following microorganisms were used to determine antibiotic selectivity of the peptides: Escherichia coli ATCC 25922, Escherichia coli MCR-1 Af 45 and Klebsiella pneumoniae SSI3010. Antimicrobial activities of the peptides were expressed as the minimal inhibitory concentration (MIC) in μg/mL at which no visible growth was observed after 18-20 hours of incubation at 35° C.

The subject of data set [2] is Klebsiella pneumoniae SSI3010. The note with it: SSI3010. The procedure:
as §1, §2, §3, §4

Data set [3] concerns Escherichia coli ATCC 25922. The note with it: ATCC 25922. Here is the method:
as §1, §2, §3, §4

Data set [4] has as its system human red blood cells (hRBC). The note with it: red cells of human, 1 h, 200 μg/mL. Here is the method: Lyophilized peptides were weighed on a Microbalance (Mettler MT5) and dissolved in sterile water to a final concentration of 1 mg/mL. Stock solutions were kept at +4° C., light protected. The peptides were tested for their hemolytic activity against human red blood cells (hRBC). Fresh hRBC were washed three times with phosphate buffered saline (PBS) and centrifuged for 5 min at 3000×g. Compounds (200 μg/mL) were incubated with 20% hRBC (v/v) for 1 h at 37° C. and shaking at 300 rpm. A value of 0% and 100% cell lyses, respectively, was determined by incubation of hRBC in the presence of PBS and 2.5% Triton X-100 in H2O, respectively. The samples were centrifuged, the supernatants were 8-fold diluted in PBS buffer and the optical densities (OD) were measured at 540 nm. The 100% lyses value (OD540H2O) gave an OD540 of approximately 0.5-1.0. Percent hemolysis was calculated as follows: (OD540peptide/OD540H2O)×100%.

As to `CC[C@H](C)[C@H](NC(=O)[C@@H]1C[C@@H](O)CN1C(=O)[C@@H](NC(=N)N)C(C)C)C(=O)N[C@@H]1C(=O)N[C@@H](Cc2ccc(O)cc2)C(=O)N[C@@H](CCO)C(=O)N[C@@H](CC(N)=O)C(=O)N[C@@H](CCCNC(=N)N)C(=O)N[C@@H](CCN)C(=O)N[C@@H]([C@@H](C)O)C(=O)N[C@H](CCN)C(=O)N[C@@H](CCCCN)C(=O)N[C@@H](CCN)C(=O)N[C@@H](CCN)C(=O)N[C@H](C(=O)N[C@@H](Cc2ccc(O)cc2)C(=O)O)CSSC1(C)C` [Example 117, Gua-Val-Hyp-Ile-Pen-Tyr-Hse-Asn-Arg-Dab-Thr-^DDab-Lys-Dab-Dab-Cys-Tyr] ({Val(Nα-amidino)}-[Hyp]I[Pen]Y[hSer]NR[Dab]T[dDab]K[Dab][Dab]CY-OH; disulfide 3-14), the “Escherichia coli MCR-1 Af45 MIC” value in data set [1] turned out to be 0.0625 µg/mL. Besides, in data set [2], the “Klebsiella pneumoniae SSI3010 MIC” value stood at 0.125 µg/mL. The “Escherichia coli ATCC 25922 MIC” value in data set [3] stood at 0.125 µg/mL. Moreover, the “Hemolysis at 0.2 g/L” value in data set [4] is below 1%.

As to `CC[C@H](C)[C@H](NC(=O)[C@@H]1C=CCN1C(=O)[C@@H](NC(=N)N)C(C)C)C(=O)N[C@@H]1C(=O)N[C@@H](Cc2ccc(O)cc2)C(=O)N[C@@H]([C@@H](C)O)C(=O)N[C@@H](CC(N)=O)C(=O)N[C@@H](CCCNC(=N)N)C(=O)N[C@@H](CCN)C(=O)N[C@@H]([C@@H](C)O)C(=O)N[C@H](CCN)C(=O)N[C@@H](CCCCN)C(=O)N[C@@H](CCN)C(=O)N[C@@H](CCN)C(=O)N[C@H](C(=O)N[C@@H](Cc2ccc(O)cc2)C(=O)O)CSSC1(C)C` [Example 109, Gua-Val-Pro(3,4dehydro)-Ile-Pen-Tyr-Thr-Asn-Arg-Dab-Thr-^DDab-Lys-Dab-Dab-Cys-Tyr] ({Val(Nα-amidino)}-[ΔPro]I[Pen]YTNR[Dab]T[dDab]K[Dab][Dab]CY-OH; disulfide 3-14), the “Escherichia coli MCR-1 Af45 MIC” value in data set [1] worked out at 0.03125 µg/mL. Besides, in data set [2], the “Klebsiella pneumoniae SSI3010 MIC” value was 0.125 µg/mL. Moreover, the “Escherichia coli ATCC 25922 MIC” value in data set [3] stood at 0.0625 µg/mL. In addition, the “Hemolysis at 0.2 g/L” value in data set [4] was below 1%.

Consider `CC[C@H](C)[C@H](NC(=O)[C@@H]1C[C@@H](O)CN1C(=O)[C@@H](NC(=N)N)C(C)C)C(=O)N[C@H]1CCNC(=O)CC[C@@H](C(=O)N[C@@H](Cc2ccc(O)cc2)C(=O)O)NC(=O)[C@H](CCN)NC(=O)[C@H](CCN)NC(=O)[C@H](CCCCN)NC(=O)[C@@H](CCN)NC(=O)[C@H](CO)NC(=O)[C@H](CCN)NC(=O)[C@H](CCCNC(=N)N)NC(=O)[C@H](CC(N)=O)NC(=O)[C@H]([C@@H](C)O)NC(=O)[C@H](Cc2ccc(O)cc2)NC1=O` [Example 86, Gua-Val-Hyp-Ile-Dab-Tyr-Thr-Asn-Arg-Dab-Ser-^DDab-Lys-Dab-Dab-Glu-Tyr] ({Val(Nα-amidino)}-[Hyp]I[Dab]YTNR[Dab]S[dDab]K[Dab][Dab]EY-OH; lactam 3-14), for which the “Escherichia coli MCR-1 Af45 MIC” value in data set [1] is 0.03125 µg/mL. In data set [2], the “Klebsiella pneumoniae SSI3010 MIC” value worked out at 0.0625 µg/mL. Further, in data set [3], the “Escherichia coli ATCC 25922 MIC” value was 0.03125 µg/mL. In data set [4], the “Hemolysis at 0.2 g/L” value is recorded as below 1%.

`CC[C@H](C)[C@H](NC(=O)[C@@H]1C[C@@H](O)CN1C(=O)[C@@H](N)C(C)C)C(=O)N[C@@H]1C(=O)N[C@@H](Cc2ccc(O)cc2)C(=O)N[C@@H](CO)C(=O)N[C@@H](C)C(=O)N[C@@H](CCCNC(=N)N)C(=O)N[C@@H](CCN)C(=O)N[C@@H]([C@@H](C)O)C(=O)N[C@H](CCN)C(=O)N[C@@H](CCCCN)C(=O)N[C@@H](CCN)C(=O)N[C@@H](CCN)C(=O)N[C@H](C(=O)N[C@@H](Cc2ccc(O)cc2)C(=O)O)CSSC1(C)C` [Example 20, Val-Hyp-Ile-Pen-Tyr-Ser-Ala-Arg-Dab-Thr-^DDab-Lys-Dab-Dab-Cys-Tyr] (H-V[Hyp]I[Pen]YSAR[Dab]T[dDab]K[Dab][Dab]CY-OH; disulfide 4-15): in data set [1], the “Escherichia coli MCR-1 Af45 MIC” value was determined as 0.5 µg/mL. Moreover, the “Klebsiella pneumoniae SSI3010 MIC” value in data set [2] amounted to 1 µg/mL. In addition, the “Escherichia coli ATCC 25922 MIC” value in data set [3] is 0.5 µg/mL. The “Hemolysis at 0.2 g/L” value in data set [4] was below 1%.

As to `CC[C@H](C)[C@H](NC(=O)[C@@H]1C[C@@H](O)CN1C(=O)[C@@H](N)C(C)C)C(=O)N[C@H]1CCNC(=O)CC[C@@H](C(=O)N[C@@H](Cc2ccc(O)cc2)C(=O)O)NC(=O)[C@H](CCN)NC(=O)[C@H](CCN)NC(=O)[C@H](CCCCN)NC(=O)[C@@H](CCN)NC(=O)[C@H]([C@@H](C)O)NC(=O)[C@H](CCN)NC(=O)[C@H](CCCNC(=N)N)NC(=O)[C@H](CC(N)=O)NC(=O)[C@H](CO)NC(=O)[C@H](Cc2ccc(O)cc2)NC1=O` [Example 78, Val-Hyp-Ile-Dab-Tyr-Ser-Asn-Arg-Dab-Thr-^DDab-Lys-Dab-Dab-Glu-Tyr] (H-V[Hyp]I[Dab]YSNR[Dab]T[dDab]K[Dab][Dab]EY-OH; lactam 4-15), the “Escherichia coli MCR-1 Af45 MIC” value in data set [1] was 0.125 µg/mL. Further, the “Klebsiella pneumoniae SSI3010 MIC” value in data set [2] came to 0.25 µg/mL. Moreover, in data set [3], the “Escherichia coli ATCC 25922 MIC” value was determined as 0.125 µg/mL. For the same molecule, the “Hemolysis at 0.2 g/L” value in data set [4] is below 1%.

Regarding `CC[C@H](C)[C@H](NC(=O)[C@@H]1C[C@@H](O)CN1C(=O)[C@@H](N)C(C)C)C(=O)N[C@@H]1C(=O)N[C@@H](Cc2ccc(O)cc2)C(=O)N[C@@H](CO)C(=O)N[C@@H](CC(N)=O)C(=O)N[C@@H](CCCNC(=N)N)C(=O)N[C@@H](CCN)C(=O)N[C@@H]([C@@H](C)O)C(=O)N[C@H](CCN)C(=O)N[C@@H](CCCCN)C(=O)N[C@@H](CCN)C(=O)N[C@@H](CCN)C(=O)N[C@H](C(=O)N[C@@H](CC2CCCCC2)C(=O)O)CSSC1(C)C` [Example 65, Val-Hyp-Ile-Pen-Tyr-Ser-Asn-Arg-Dab-Thr-^DDab-Lys-Dab-Dab-Cys-Cha] (H-V[Hyp]I[Pen]YSNR[Dab]T[dDab]K[Dab][Dab]C[Cha]-OH; disulfide 4-15), in data set [1], the “Escherichia coli MCR-1 Af45 MIC” value amounted to 0.0625 µg/mL. Besides, the “Klebsiella pneumoniae SSI3010 MIC” value in data set [2] came out at 0.25 µg/mL. Further, the “Escherichia coli ATCC 25922 MIC” value in data set [3] was 0.25 µg/mL. Besides, in data set [4], the “Hemolysis at 0.2 g/L” value is below 1%.

With `CC[C@H](C)[C@H](NC(=O)[C@@H]1C[C@@H](O)CN1C(=O)[C@@H](NC(=N)N)C(C)C)C(=O)N[C@@H]1C(=O)N[C@@H](Cc2ccc(O)cc2)C(=O)N[C@@H](CCN)C(=O)N[C@@H](CC(N)=O)C(=O)N[C@@H](CCCNC(=N)N)C(=O)N[C@@H](CCN)C(=O)N[C@@H]([C@@H](C)O)C(=O)N[C@H](CCN)C(=O)N[C@@H](CCCCN)C(=O)N[C@@H]([C@@H](C)O)C(=O)N[C@@H](Cc2ccc(O)cc2)C(=O)N[C@H](C(=O)N[C@@H](Cc2ccc(O)cc2)C(=O)O)CSSC1(C)C` [Example 72, Gua-Val-Hyp-Ile-Pen-Tyr-Dab-Asn-Arg-Dab-Thr-^DDab-Lys-Thr-Tyr-Cys-Tyr] ({Val(Nα-amidino)}-[Hyp]I[Pen]Y[Dab]NR[Dab]T[dDab]KTYCY-OH; disulfide 3-14), the “Escherichia coli MCR-1 Af45 MIC” value in data set [1] turned out to be 0.5 µg/mL. The “Klebsiella pneumoniae SSI3010 MIC” value in data set [2] turned out to be 0.5 µg/mL. In addition, the “Escherichia coli ATCC 25922 MIC” value in data set [3] came out at 0.5 µg/mL. Besides, the “Hemolysis at 0.2 g/L” value in data set [4] was below 1%.

As to `CC[C@H](C)[C@H](NC(=O)[C@@H]1C[C@@H](O)CN1C(=O)[C@@H](NC(=N)N)C(C)C)C(=O)N[C@@H]1C(=O)N[C@@H](Cc2ccc(O)cc2)C(=O)N[C@@H]([C@@H](C)O)C(=O)N[C@@H](CC(N)=O)C(=O)N[C@@H](CCCNC(=N)N)C(=O)N[C@@H](CCN)C(=O)N[C@@H]([C@@H](C)O)C(=O)N[C@H](CCN)C(=O)N[C@@H](CCN)C(=O)N[C@@H](CCN)C(=O)N[C@@H]([C@@H](C)O)C(=O)N[C@H](C(=O)N[C@@H](Cc2ccc(O)cc2)C(=O)O)CSSC1(C)C` [Example 132, Gua-Val-Hyp-Ile-Pen-Tyr-Thr-Asn-Arg-Dab-Thr-^DDab-Dab-Dab-Thr-Cys-Tyr] ({Val(Nα-amidino)}-[Hyp]I[Pen]YTNR[Dab]T[dDab][Dab][Dab]TCY-OH; disulfide 3-14), the “Escherichia coli MCR-1 Af45 MIC” value in data set [1] came to 0.125 µg/mL. Moreover, the “Klebsiella pneumoniae SSI3010 MIC” value in data set [2] amounted to 0.25 µg/mL. The “Escherichia coli ATCC 25922 MIC” value in data set [3] was 0.25 µg/mL. Moreover, the “Hemolysis at 0.2 g/L” value in data set [4] is given as below 1%.

For the origin of these results see US20240336654A1, “ANTIMICROBIAL PEPTIDOMIMETICS” (SPEXIS AG, priority 2021, published 2024).
